Test results taken from US6641843B1, “Pharmaceutical compositions” (SmithKline Beecham Corporation, priority 1998, dated 2003).

Assay: Stability and excipient compatibility of the compound in oral solution
Format: physicochemical
Text: Solutions of (1S,4R)-cis-4-[2-amino-6-cyclopropylamino)-9H-purin-9-yl]-2-cyclopentene-1-methanol are bitter-tasting and therefore require the addition of sweeteners and taste-maskers. However, formulation of (1S,4R)-cis-4-[2-amino-6-cyclopropylamino)-9H-purin-9-yl]-2-cyclopentene-1-methanol in solution is difficult because materials containing a —COOH group present problems with (1S,4R)-cis-4-[2-amino-6-cyclopropylamino)-9H-purin-9-yl]-2-cyclopentene-1-methanol compatibility.
Advantageously, the pH may be 3.8 to 4.5.

## Nc1nc(NC2CC2)c2ncn([C@H]3C=C[C@@H](CO)C3)c2n1 [abacavir]
In solution
  adduct formation with sorbitol and/or saccharin: do not lead to the formation of adducts
  compatibility with combinations of fructose, acesulfame and saccharin: compatible
  compatibility with sorbitol or saccharin or a combination of sorbitol and saccharin: compatible
In solution, glucose replaces the methanol group on the cyclopentyl ring
  adduct formation with glucose: forms an adduct
In solution, sucrose degrades to glucose and fructose
  compatibility with sucrose and glucose: incompatible
Metal chelator, for example citrate
  effect of addition of a metal chelator on stability in solution: improves the stability
pH 4.5-6.5
  appearance of solutions containing sorbitol: color change and the formation of dark colored particulates
pH lowered to about 4.0
  effect of lowering the pH on color change and particulates: eliminates the color change and the formation of particulates
